ChEMBL document CHEMBL3997790, “The oxidative induction of DNA lesions in cancer cells by 5-thio-d-glucose and 6-thio-d-fructopyranose and their genotoxic effects. Part 3” (Bioorg Med Chem Lett, 2017)
Activity calls are given as the source filed them. The calls are words filed in the database; no cut-off is given here.

What was measured:
HeLa [1] = experiment: Geno-toxicity in human HeLa cells assessed as induction of DNA damage at 0.2 mM at 37 degC by alkaline comet assay; type: functional, cell-based
HeLa [2] = experiment: Induction of oxidative DNA damage in human HeLa cells at 0.19 to 0.76 mM in presence of PBN spin trap after 1 hr by alkaline comet assay; type: functional, cell-based
HeLa [3] = experiment: Induction of ROS production in human HeLa cells at 0.2 mM after 24 hrs by H2DCFDA probe based fluorescence assay; type: functional, cell-based
HeLa [4] = experiment: Geno-toxicity in human HeLa cells assessed as induction of DNA damage at 0.5 mM in presence of 5 mM glucose after 1 hr by alkaline comet assay; type: functional, cell-based
HeLa [5] = experiment: Upregulation of FHL2 mRNA expression in human HeLa cells at 0.5 mM after 1 hr by qRT-PCR method; type: functional, cell-based
HeLa [6] = experiment: Geno-toxicity in human HeLa cells assessed as induction of DNA damage by measuring double stranded DNA breaks at 0.19 to 0.76 mM after 1 hr by neutral comet assay; type: functional, cell-based
HeLa [7] = experiment: Geno-toxicity in human HeLa cells assessed as induction of DNA damage at 0.2 mM at 4 degC by alkaline comet assay; type: functional, cell-based
HeLa [8] = experiment: Geno-toxicity in human HeLa cells assessed as induction of DNA damage at pH 12.1 after 1 hr by comet assay; type: functional, cell-based
HeLa [9] = experiment: Geno-toxicity in human HeLa cells assessed as induction of DNA damage after 1 hr by alkaline comet assay; type: functional, cell-based
HeLa [10] = experiment: Down regulation of NCOA7 mRNA expression in human HeLa cells at 0.5 mM after 1 hr by qRT-PCR method; type: functional, cell-based
HeLa [11] = experiment: Induction of DNA damage in human HeLa cells assessed as increase in oxidative DNA lesions by measuring oxidized purines at 0.1 mM preincubated for 1 hr followed by human 8-oxoguanine DNA N-glycosylase1 addition measured after 30 mins by alkaline comet assay; type: functional, cell-based
HeLa [12] = experiment: Induction of DNA damage in human HeLa cells at 0.1 mM in presence of antioxidant vitamin E after 1 hr by alkaline comet assay; type: functional, cell-based
HeLa [13] = experiment: Geno-toxicity in human HeLa cells assessed as induction of DNA damage at 0.2 mM by alkaline comet assay; type: functional, cell-based; settings: TDE = time-dependent effect
HeLa [14] = experiment: Induction of DNA damage in human HeLa cells at 0.1 mM in presence of antioxidant epikatehin after 1 hr by alkaline comet assay; type: functional, cell-based
HeLa [15] = experiment: Induction of DNA damage in human HeLa cells assessed as increase in oxidative DNA lesions by measuring oxidized purines at 0.1 mM preincubated for 1 hr followed by formamidopyrimidine DNA glycosylase addition measured after 30 mins by alkaline comet assay; type: functional, cell-based
HeLa [16] = experiment: Upregulation of NOX5 mRNA expression in human HeLa cells at 0.5 mM after 1 hr by qRT-PCR method; type: functional, cell-based
HeLa [17] = experiment: Induction of apoptosis in human HeLa cells at 0.5 mM after 4 hrs by Annexin-V-FITC/PI staining based flow cytometry; type: functional, cell-based
HeLa [18] = experiment: Induction of mitochondrial membrane depolarization in human HeLa cells at 0.5 mM by JC-1 staining based flow cytometry; type: functional, cell-based
[19] = tested on: Escherichia coli DH5[alpha]; experiment: Induction of DNA damage in Escherichia coli DH5alpha supercoiled pUC19 DNA assessed as increase in open circular forms at 0.1 to 1 mM by ethidium bromide staining based agarose gel electrophoresis
HeLa [20] = experiment: Induction of DNA damage in human HeLa cells assessed as increase in oxidative DNA lesions by measuring oxidized pyrimidines at 0.1 mM preincubated for 1 hr followed by endonuclease3 addition measured after 30 mins by alkaline comet assay; type: functional, cell-based
[21] = tested on: Escherichia coli DH5[alpha]; experiment: Induction of DNA damage in Escherichia coli DH5alpha supercoiled pUC19 DNA assessed as increase in linear DNA forms at 0.1 to 1 mM by ethidium bromide staining based agarose gel electrophoresis
[22] = tested on: Escherichia coli DH5[alpha]; experiment: Induction of DNA damage in Escherichia coli DH5alpha supercoiled pUC19 DNA assessed as decrease in covalently closed circular DNA forms at 0.1 to 1 mM by ethidium bromide staining based agarose gel electrophoresis
HeLa [23] = experiment: Cytotoxicity against human HeLa cells assessed as decrease in cell viability at 0.5 mM in presence of 5 mM glucose after 14 hrs by WST-8 based CCK-8 assay; type: functional
HeLa [24] = experiment: Geno-toxicity in human HeLa cells assessed as induction of DNA damage at 0.1 mM at 37 degC by alkaline comet assay; type: functional, cell-based
HeLa [25] = experiment: Geno-toxicity in human HeLa cells assessed as induction of DNA damage at 0.1 mM at 4 degC by alkaline comet assay; type: functional, cell-based
HeLa [26] = experiment: Geno-toxicity in human HeLa cells assessed as induction of DNA damage at 0.6 mM in presence of 5 mM glucose after 1 hr by alkaline comet assay; type: functional, cell-based
HeLa [27] = experiment: Induction of oxidative DNA damage in human HeLa cells at 0.05 to 0.5 mM in presence of PBN spin trap after 1 hr by alkaline comet assay; type: functional, cell-based
HeLa [28] = experiment: Cytotoxicity against human HeLa cells assessed as decrease in cell viability at 0.6 mM in presence of 5 mM glucose after 14 hrs by WST-8 based CCK-8 assay; type: functional
HeLa [29] = experiment: Induction of ROS production in human HeLa cells at 0.1 mM after 24 hrs by H2DCFDA probe based fluorescence assay; type: functional, cell-based
HeLa [30] = experiment: Geno-toxicity in human HeLa cells assessed as induction of DNA damage at 0.1 mM by alkaline comet assay; type: functional, cell-based; settings: TDE = time-dependent effect
HeLa [31] = experiment: Geno-toxicity in human HeLa cells assessed as induction of DNA damage by measuring double stranded DNA breaks at 0.02 to 0.5 mM after 1 hr by neutral comet assay; type: functional, cell-based

Compound | Activity (HeLa [5]) | Activity (HeLa [8]) | Activity (HeLa [9]) | Activity (HeLa [10]) | Activity (HeLa [11]) | Activity (HeLa [12]) | Activity (HeLa [14]) | Activity (HeLa [15]) | Activity (HeLa [16]) | Activity (HeLa [17]) | Activity (HeLa [18]) | Activity [19] | Activity (HeLa [20]) | Activity [21] | Activity [22] | other results
OC[C@@]1(O)SC[C@@H](O)[C@@H](O)[C@@H]1O | Active | Dose-dependent effect | Dose-dependent effect | Active | Active | inactive | inactive | Active | Active | inactive | inactive | inactive | Active | inactive | inactive | Activity (HeLa [1]): inactive; Activity (HeLa [2]): inactive; Activity (HeLa [3]): Active; Activity (HeLa [4]): Active; Activity (HeLa [6]): inactive; Activity (HeLa [7]): Active; Activity (HeLa [13]): Tde; Activity (HeLa [23]): Active
OC[C@H]1SC(O)[C@H](O)[C@@H](O)[C@@H]1O (stereo partly specified) | Active | Dose-dependent effect | Dose-dependent effect | Active | Active | inactive | inactive | Active | Active | inactive | inactive | inactive | Active | inactive | inactive | Activity (HeLa [24]): inactive; Activity (HeLa [25]): Active; Activity (HeLa [26]): Active; Activity (HeLa [27]): inactive; Activity (HeLa [28]): Active; Activity (HeLa [29]): Active; Activity (HeLa [30]): Tde; Activity (HeLa [31]): inactive
